Data set [1] in a line: Oral bioavailability in ICR mouse at 5 mg/kg by LC-MS/MS analysis. Format: ADME, organism-based. To be noted: in vivo.
The nature of data set [2]: Oral bioavailability in Beagle dog at 5 mg/kg. In kind it is ADME, organism-based, Canis lupus familiaris. To be noted: in vivo.
A short description of data set [3]: Clearance in cynomolgus monkey at 5 mg/kg, po. In kind it is ADME, organism-based, Macaca fascicularis. To be noted: in vivo.
Data set [4] is described as follows: Clearance in ICR mouse at 5 mg/kg, po. In kind it is ADME, organism-based. To be noted: in vivo.
In the next data set the test system is COLO 205. Kind of data set: Antitumor activity against human COLO 205 cells xenografted in mouse model assessed as tumor growth inhibition at 15 mg/kg, po administered once daily for 7 days relative to control. In kind it is functional. The settings on record: COLO 205, 168 h, time 7 day, read-out: TGI. In general terms: Xenograft models place foreign cells or tissue in a host animal.

Data set [5] can be described thus: Oral bioavailability in Cynomolgus monkey at 5 mg/kg. In kind it is ADME, organism-based, Macaca fascicularis. The settings on record: in vivo.
Data set [6] in a line: Oral bioavailability in Sprague-Dawley rat at 5 mg/kg by LC-MS/MS analysis. The settings on record: in vivo. Format: ADME, organism-based.
The nature of data set [7]: Clearance in Sprague-Dawley rat at 5 mg/kg, po. Format: ADME, organism-based. The settings on record: in vivo.
A short description of data set [8]: Clearance in Beagle dog at 5 mg/kg, po. Format: ADME, organism-based, Canis lupus familiaris. To be noted: in vivo.
Data set [9] is described as follows: Cmax in CD-1 mouse at 2 mg/kg, iv. To be noted: in vivo. Format: ADME, organism-based.
For data set [10], the target named is T1, Nicotinamide phosphoribosyltransferase (Homo sapiens, UniProt P43490). Kind of data set: Inhibition of NAMPT (unknown origin).
The nature of data set [11]: Oral bioavailability in CD-1 mouse at 2 mg/kg. To be noted: in vivo. Format: ADME, organism-based.
A short description of data set [12]: Clearance in CD-1 mouse at 2 mg/kg, iv. In kind it is ADME, organism-based. To be noted: in vivo.
A short description of data set [13]: AUC in CD-1 mouse at 2 mg/kg, iv. Format: ADME, organism-based. To be noted: in vivo.
Data set [14] is described as follows: Half life in Sprague-Dawley rat at 5 mg/kg, po measured for 24 hrs by LC/MS/MS analysis. Format: ADME, organism-based. To be noted: in vivo.
In another data set the test system is HCT-116. Kind of data set: Antitumor activity against human HCT-116 cells xenografted in […] mouse assessed as tumor growth inhibition at 15 mg/kg, po administered for 3 days relative to control. In kind it is functional. To be noted: HCT-116, 72 h, time 3 day, read-out: TGI.
A short description of data set [15]: Clearance in Sprague-Dawley rat at 1 mg/kg, iv. Format: ADME, organism-based. The settings on record: in vivo.
A further data set deals with Histone deacetylase 1 (Homo sapiens, UniProt Q13547). Kind of data set: Inhibition of human recombinant HDAC1 using Boc-Lys(Ac)-AMC as substrate preincubated for 30 mins followed by substrate addition measured for 1 hr by fluorescence based analysis.
For the next data set, the target named is Cytochrome P450 3A4 (Homo sapiens, UniProt P08684). Kind of data set: Inhibition of CYP3A4 (unknown origin). In kind it is ADME.
Data set [16] is described as follows: Oral bioavailability in Sprague-Dawley rat at 5 mg/kg. Format: ADME, organism-based. The settings on record: in vivo.
The target in another data set is Cytochrome P450 2C9 (Homo sapiens, UniProt P11712). Kind of data set: Inhibition of CYP2C9 (unknown origin). In kind it is ADME.
Data set [17] has as its target T1, Nicotinamide phosphoribosyltransferase. Kind of data set: Inhibition of N-terminal 6His-tagged human NAMPT (unknown origin) expressed in Escherichia coli Rosetta (DE) cells incubated for 1 hr by […].
Data set [18] deals with Epidermal growth factor receptor (Homo sapiens, UniProt P00533, L861Q). Kind of data set: Inhibition of human EGFR L861Q mutant by discoverX kinome scan assay.
Data set [19] deals with Epidermal growth factor receptor (Homo sapiens, UniProt P00533, L858R). Kind of data set: Inhibition of EGFR L858R mutant (unknown origin).
The subject of data set [20] is A549. Kind of data set: Antitumor activity against human A549 cells xenografted in BALB/c nude mouse assessed as tumor growth inhibition at 20 mg/kg, ip administered once daily for 20 days relative to control. The settings on record: A549, 480 h, time 20 day, read-out: TGI. In kind it is functional.
Data set [21] concerns A549. Kind of data set: Antitumor activity against human A549 cells xenografted in BALB/c nude mouse assessed as tumor growth inhibition at 10 mg/kg, ip administered once daily for 20 days relative to control. Format: functional. To be noted: A549, 480 h, time 20 day, read-out: TGI.
Data set [22] is described as follows: Oral bioavailability in mouse at 2 mg/kg. In kind it is ADME, organism-based. The settings on record: in vivo.
The nature of data set [23]: Half life in mouse plasma at 5 mg/kg, iv by LC-MS/MS analysis. Format: ADME, organism-based.
Data set [24] has as its system A2780. Kind of data set: Antitumor activity against human A2780 cells xenografted in BALB/c nu/nu mouse assessed as tumor growth inhibition at 30 mg/kg, iv administered once daily for 2 weeks relative to control. To be noted: A2780, 336 h, read-out: TGI. Format: functional.
Data set [25] can be described thus: Cmax in mouse plasma at 30 mg/kg, ip measured upto 24 hrs by LC-MS/MS analysis. In kind it is ADME, organism-based.
The target in data set [26] is von Hippel-Lindau disease tumor suppressor/Nicotinamide phosphoribosyltransferase (Homo sapiens, UniProt P43490+P40337). Kind of data set: Protac activity at VHL/NAMPT in human A2780 cells assessed as degradation of NAMPT using NAM as substrate pre-incubated for 30 mins followed by substrate addition measured for 1 hr in presence of ATP by luminescence based microplate reader analysis. In kind it is cell-based.

Another data set deals with SH-SY5Y. Kind of data set: Antiproliferative activity against human SH-SY5Y cells assessed as cell growth inhibition measured for 48 hrs by MTT assay. In kind it is functional, cell-based. On the technique in general: Tetrazolium assays rely on reduction of a dye to a coloured formazan, in cell work by metabolically active cells.
A further data set deals with MIA PaCa-2. Kind of data set: Antiproliferative activity against human MIA PaCa-2 cells assessed as reduction in cell viability incubated for 72 hrs by MTT assay. In kind it is functional, cell-based. The settings on record: MIA PaCa-2, 72 h.
For data set [27], the system named is A2780. Kind of data set: Antiproliferative activity against human A2780 cells assessed as reduction in cell viability measured for 72 hrs by MTT assay. In kind it is functional, cell-based. To be noted: A2780, 72 h.
Data set [28] in a line: Oral bioavailability in Sprague-Dawley rat at 10 mg/kg by LC-MS analysis. In kind it is ADME, organism-based. The settings on record: in vivo.
Data set [29] in a line: Cmax in Sprague-Dawley rat at 10 mg/kg, po by LC-MS analysis. Format: ADME, organism-based. To be noted: in vivo.

The values below come from ChEMBL document CHEMBL5518156, “Recent advances of targeting nicotinamide phosphoribosyltransferase (NAMPT) for cancer drug discovery” (Eur J Med Chem, 2023).

A word on the bioavailability: it is dose-corrected exposure relative to a reference, in per cent. Broadly, the CL/F is clearance divided by bioavailability, as obtained after extravascular dosing. By Cmax is commonly meant the highest concentration seen after dosing. Usually IC50 stands for the concentration that gives 50% inhibition. In general, clearance refers to a measure of how efficiently the substance is removed, as volume per time. In general, AUC refers to concentration integrated over time. The term half-life denotes the time in which the quantity being followed falls by half. The DC50 is the midpoint of the concentration-degradation curve.

T1 sequence (P43490 whole entry): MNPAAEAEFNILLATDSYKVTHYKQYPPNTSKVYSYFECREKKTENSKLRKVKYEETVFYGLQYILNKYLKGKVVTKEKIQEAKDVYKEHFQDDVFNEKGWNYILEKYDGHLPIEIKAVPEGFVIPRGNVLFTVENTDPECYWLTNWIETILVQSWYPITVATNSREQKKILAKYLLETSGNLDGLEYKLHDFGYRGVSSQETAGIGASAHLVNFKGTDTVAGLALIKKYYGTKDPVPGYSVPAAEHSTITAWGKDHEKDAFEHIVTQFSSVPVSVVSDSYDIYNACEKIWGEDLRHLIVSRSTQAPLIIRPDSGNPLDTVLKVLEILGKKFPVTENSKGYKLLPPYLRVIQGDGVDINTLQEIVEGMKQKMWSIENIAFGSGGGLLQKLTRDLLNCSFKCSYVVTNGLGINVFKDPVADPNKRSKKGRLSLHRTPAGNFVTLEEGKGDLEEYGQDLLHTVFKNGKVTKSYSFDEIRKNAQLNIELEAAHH
Sequence of Epidermal growth factor receptor (Homo sapiens, UniProt P00533, L861Q) (P00533 25-1210 L861Q limits assumed): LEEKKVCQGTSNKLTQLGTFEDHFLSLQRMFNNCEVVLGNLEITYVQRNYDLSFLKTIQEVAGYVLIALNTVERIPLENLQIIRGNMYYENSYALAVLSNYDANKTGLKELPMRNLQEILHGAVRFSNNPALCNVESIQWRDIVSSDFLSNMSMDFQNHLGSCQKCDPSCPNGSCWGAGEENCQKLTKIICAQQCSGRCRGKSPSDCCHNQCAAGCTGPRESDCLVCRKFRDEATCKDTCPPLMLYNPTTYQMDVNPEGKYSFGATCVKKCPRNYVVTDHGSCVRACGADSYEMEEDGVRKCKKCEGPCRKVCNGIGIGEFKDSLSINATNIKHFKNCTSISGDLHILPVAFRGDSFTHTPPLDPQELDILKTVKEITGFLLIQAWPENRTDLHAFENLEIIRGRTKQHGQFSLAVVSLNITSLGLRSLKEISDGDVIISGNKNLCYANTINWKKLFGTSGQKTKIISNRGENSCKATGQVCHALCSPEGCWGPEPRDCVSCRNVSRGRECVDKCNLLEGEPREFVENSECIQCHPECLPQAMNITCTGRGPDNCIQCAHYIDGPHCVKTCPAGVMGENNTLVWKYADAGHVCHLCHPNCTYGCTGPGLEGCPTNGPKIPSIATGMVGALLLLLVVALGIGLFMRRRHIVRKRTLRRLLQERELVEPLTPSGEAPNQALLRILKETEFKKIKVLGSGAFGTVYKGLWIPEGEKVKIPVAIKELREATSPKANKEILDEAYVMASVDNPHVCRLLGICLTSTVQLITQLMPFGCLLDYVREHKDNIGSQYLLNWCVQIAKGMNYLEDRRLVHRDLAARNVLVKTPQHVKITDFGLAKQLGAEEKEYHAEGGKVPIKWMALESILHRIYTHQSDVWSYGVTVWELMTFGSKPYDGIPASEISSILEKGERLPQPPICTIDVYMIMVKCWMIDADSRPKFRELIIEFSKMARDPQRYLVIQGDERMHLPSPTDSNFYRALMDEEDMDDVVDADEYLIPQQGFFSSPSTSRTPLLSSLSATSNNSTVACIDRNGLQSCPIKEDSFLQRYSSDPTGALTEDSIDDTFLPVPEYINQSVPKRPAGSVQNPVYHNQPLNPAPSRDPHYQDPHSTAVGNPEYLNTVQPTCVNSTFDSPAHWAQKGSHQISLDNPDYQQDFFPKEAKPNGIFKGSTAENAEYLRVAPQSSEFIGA
Sequence of Histone deacetylase 1 (Q13547 whole entry): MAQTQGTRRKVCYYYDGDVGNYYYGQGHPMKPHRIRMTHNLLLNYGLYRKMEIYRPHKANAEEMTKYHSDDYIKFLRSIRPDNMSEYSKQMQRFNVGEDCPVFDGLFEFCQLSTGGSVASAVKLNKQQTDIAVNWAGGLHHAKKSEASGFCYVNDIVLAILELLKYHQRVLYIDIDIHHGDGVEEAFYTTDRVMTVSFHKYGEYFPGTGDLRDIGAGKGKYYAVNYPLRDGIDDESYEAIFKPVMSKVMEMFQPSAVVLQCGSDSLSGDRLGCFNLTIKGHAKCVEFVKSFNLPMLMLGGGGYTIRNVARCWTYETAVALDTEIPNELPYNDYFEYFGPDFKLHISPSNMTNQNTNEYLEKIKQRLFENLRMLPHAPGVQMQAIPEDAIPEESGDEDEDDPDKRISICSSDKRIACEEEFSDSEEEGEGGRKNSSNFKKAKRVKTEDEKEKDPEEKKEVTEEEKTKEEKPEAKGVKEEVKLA
Sequence of Epidermal growth factor receptor (Homo sapiens, UniProt P00533, L858R) (P00533 25-1210 L858R limits assumed): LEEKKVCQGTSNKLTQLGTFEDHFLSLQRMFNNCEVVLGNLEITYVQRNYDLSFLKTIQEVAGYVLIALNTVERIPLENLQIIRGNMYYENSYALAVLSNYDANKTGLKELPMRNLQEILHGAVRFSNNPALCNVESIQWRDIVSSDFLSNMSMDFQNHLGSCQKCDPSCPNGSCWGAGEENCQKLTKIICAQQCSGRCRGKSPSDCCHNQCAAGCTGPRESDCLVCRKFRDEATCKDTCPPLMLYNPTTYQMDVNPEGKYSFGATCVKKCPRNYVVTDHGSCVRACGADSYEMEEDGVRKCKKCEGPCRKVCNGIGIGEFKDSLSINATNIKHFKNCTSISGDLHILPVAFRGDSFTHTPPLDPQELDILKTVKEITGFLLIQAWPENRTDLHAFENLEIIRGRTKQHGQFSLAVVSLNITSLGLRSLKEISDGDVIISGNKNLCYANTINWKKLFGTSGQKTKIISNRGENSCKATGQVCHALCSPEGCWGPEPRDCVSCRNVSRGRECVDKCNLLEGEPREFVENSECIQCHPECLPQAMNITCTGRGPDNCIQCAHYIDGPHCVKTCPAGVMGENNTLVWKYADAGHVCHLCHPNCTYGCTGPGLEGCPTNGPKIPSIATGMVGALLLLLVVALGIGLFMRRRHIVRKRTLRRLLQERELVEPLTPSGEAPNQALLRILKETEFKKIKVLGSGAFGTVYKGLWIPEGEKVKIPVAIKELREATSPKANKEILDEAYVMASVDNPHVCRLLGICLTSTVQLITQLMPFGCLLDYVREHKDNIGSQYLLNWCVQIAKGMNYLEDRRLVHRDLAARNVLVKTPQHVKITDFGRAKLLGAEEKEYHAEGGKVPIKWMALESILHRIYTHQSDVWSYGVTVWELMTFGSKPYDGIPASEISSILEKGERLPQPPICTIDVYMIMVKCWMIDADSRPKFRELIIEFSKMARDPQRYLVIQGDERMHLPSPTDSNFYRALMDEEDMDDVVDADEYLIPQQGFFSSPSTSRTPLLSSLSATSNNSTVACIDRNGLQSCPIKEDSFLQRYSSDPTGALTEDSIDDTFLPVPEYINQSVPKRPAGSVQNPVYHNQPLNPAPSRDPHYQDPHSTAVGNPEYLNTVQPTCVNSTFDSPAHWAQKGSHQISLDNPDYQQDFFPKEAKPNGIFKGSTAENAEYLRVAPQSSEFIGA
Sequence of von Hippel-Lindau disease tumor suppressor/Nicotinamide phosphoribosyltransferase (P43490 whole entry): as the sequence (P43490 whole entry) above
Sequence of von Hippel-Lindau disease tumor suppressor/Nicotinamide phosphoribosyltransferase (P40337 whole entry): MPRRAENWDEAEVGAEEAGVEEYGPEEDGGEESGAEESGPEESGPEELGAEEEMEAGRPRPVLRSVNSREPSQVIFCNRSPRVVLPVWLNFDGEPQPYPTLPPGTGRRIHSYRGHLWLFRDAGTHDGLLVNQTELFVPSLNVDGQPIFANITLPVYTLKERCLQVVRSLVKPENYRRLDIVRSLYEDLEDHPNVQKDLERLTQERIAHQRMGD
Sequence of Cytochrome P450 2C9 (P11712 whole entry): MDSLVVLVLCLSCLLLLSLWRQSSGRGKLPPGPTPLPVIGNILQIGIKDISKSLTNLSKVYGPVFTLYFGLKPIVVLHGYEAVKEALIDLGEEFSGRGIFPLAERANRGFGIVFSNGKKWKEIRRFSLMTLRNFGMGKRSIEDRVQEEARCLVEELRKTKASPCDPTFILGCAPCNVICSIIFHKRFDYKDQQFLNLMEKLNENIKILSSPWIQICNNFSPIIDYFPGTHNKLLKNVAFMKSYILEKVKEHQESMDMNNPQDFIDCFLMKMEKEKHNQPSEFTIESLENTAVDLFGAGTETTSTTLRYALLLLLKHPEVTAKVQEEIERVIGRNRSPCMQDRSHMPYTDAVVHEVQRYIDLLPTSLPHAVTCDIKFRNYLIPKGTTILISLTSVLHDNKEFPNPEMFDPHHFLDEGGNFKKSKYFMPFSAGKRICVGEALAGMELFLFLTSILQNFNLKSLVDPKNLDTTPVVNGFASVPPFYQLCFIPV
Sequence of Cytochrome P450 3A4 (P08684 whole entry): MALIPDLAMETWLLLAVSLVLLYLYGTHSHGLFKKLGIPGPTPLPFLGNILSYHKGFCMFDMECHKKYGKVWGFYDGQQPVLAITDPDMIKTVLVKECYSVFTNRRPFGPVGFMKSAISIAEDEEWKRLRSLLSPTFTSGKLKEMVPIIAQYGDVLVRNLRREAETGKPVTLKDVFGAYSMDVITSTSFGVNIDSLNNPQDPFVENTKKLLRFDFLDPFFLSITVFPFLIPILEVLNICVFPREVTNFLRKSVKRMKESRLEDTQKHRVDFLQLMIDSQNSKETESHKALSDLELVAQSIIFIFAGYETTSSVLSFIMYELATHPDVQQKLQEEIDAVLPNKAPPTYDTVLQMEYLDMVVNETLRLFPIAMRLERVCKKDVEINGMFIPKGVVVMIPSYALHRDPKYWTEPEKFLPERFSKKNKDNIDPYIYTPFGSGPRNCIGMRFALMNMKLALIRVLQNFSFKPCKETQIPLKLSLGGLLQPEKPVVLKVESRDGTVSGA

On to `O=C(NCc1ccc(S(=O)(=O)c2cc(F)cc(F)c2)cc1)c1ccc2nccn2c1`, for which the bioavailability in data set [1] was determined as 29.7%; in data set [2] it was 65.2%; in [5], 29.4%; in data set [6], 33.9%. Also, the CL/F came to 9.14 mL/min/kg in data set [3], 36.4 mL/min/kg in [4], 19.3 mL/min/kg in data set [7] and 4.62 mL/min/kg in data set [8]. The inhibition in vivo at 15 mg/kg in the data set with COLO 205 came to 57%.
The compound `CC(C)(O)CS(=O)(=O)Nc1ccc2c(c1)CCN(C(=O)COc1cccnc1)C2` gave a Cmax in data set [9] of 57 nM. The compound further yielded an IC50 in [10] of 3.2 nM. This compound returned a bioavailability in data set [11] of 39%. For the same compound, in data set [12], the clearance came out at 159 mL/min/kg. The AUC in data set [13] turned out to be 0.195 µM·h.
Compound `O=C(NC[C@@H]1CCOC1)c1ccc(NC(=O)N2Cc3ccccc3C2)cc1` gave a half-life in data set [14] of 3 h. Besides, in the data set on HCT-116, the inhibition in vivo at 15 mg/kg stood at 78%. The same compound had a clearance in [15] of 4.33 mL/min/kg.
With `Nc1ccccc1NC(=O)c1ccc(Cn2cc(-c3ccc(C(=O)NCc4cccnc4)cc3)nn2)cc1`, the IC50 at Histone deacetylase 1 was found to be 55000 nM.
In the case of `CC(C)(O)CC(=O)N1CCC(c2ccc(NC(=O)N3Cc4ccccc4C3)cc2)CC1`, in data set [14], the half-life was 4.8 h. The IC50 at Cytochrome P450 3A4 and against Cytochrome P450 2C9 was greater than 20000 nM each time. The compound further registered a bioavailability in data set [16] of 100%. Further, the inhibition in vivo at 15 mg/kg in the data set with HCT-116 was determined as 90%.
For `CC(=O)NCc1ncc2cc(COc3ccc(C(=O)NCc4cccnc4)cc3)n(CCC3CCCCC3)c2n1`, the IC50 in [17] was 4.3 nM.
With `C#Cc1cccc(Nc2ncnc3cc(OC)c(OCCCCCCCN/C(=N\C#N)Nc4ccncc4)cc23)c1`, the IC50 turned out to be 0.49 nM in data set [18] and 0.48 nM in data set [19].
Take `Cc1c(CNc2ccc(CCNC(=O)/C=C/c3cccnc3)cc2)oc2c1C(=O)C(=O)c1c-2ccc2c1CCCC2(C)C`: the inhibition in vivo at 20 mg/kg with A549 [20] worked out at 52.1%. Besides, the inhibition in vivo at 10 mg/kg in the data set with A549 [21] stood at 44.2%. Moreover, in data set [22], the bioavailability came out at 5.8%.
Compound `CCCn1c(=O)c(-c2ccc(C(=O)NCc3cccnc3)cc2)nc2ccc(NC(=O)CCCCCCCCCCC(=O)N[C@H](C(=O)N3C[C@H](O)C[C@H]3C(=O)N[C@@H](C)c3ccc(-c4scnc4C)cc3)C(C)(C)C)cc21` gave a half-life in [23] of 9.89 h. The inhibition in vivo at 30 mg/kg in the data set with A2780 [24] amounted to 73%. Further, the peak level in data set [25] (Cmax) was 166 nM. Moreover, the DC50 in [26] was found to be 8.4 nM.
Take `CN1CCN(Cc2cn(-c3cccc(C(=O)NCCCCCCCn4cc(-c5cccnc5)nn4)c3)nn2)CC1`: the IC50 is greater than 10000 nM in the data set on SH-SY5Y and 41.8 nM in data set [10].
As for `O=C(NCCCCCCCn1cc(-c2cccnc2)nn1)c1cccc(-n2cc(CN3CCC(O)CC3)nn2)c1`, the IC50 with SH-SY5Y was greater than 10000 nM; in data set [10] it was 13.6 nM.
For `COC[C@H]1N[C@@H](c2ccc(NC(=O)c3ccc(CNS(=O)(=O)c4ccc(C(C)(C)C)cc4)cc3)cc2)[C@H](OC)[C@@H]1OC`, the IC50 in the data set on MIA PaCa-2 worked out at 32000 nM.
With `Cc1ccc(C(=O)N(CCCNC(=O)CCCCCCCCN2CCN(S(=O)(=O)c3ccc(NC(=S)NCc4cccnc4)cc3)CC2)[C@@H](c2nc3cc(Cl)ccc3c(=O)n2Cc2ccccc2)C(C)C)cc1`, the IC50 with A2780 [27] worked out at 46 nM; in data set [10], 490 nM.
Consider `O=C(/C=C/c1cccnc1)NCCCCC1CCN(C(=O)c2ccc(N3CCN(CCCCCCC#Cc4cccc5c4CN(C4CCC(=O)NC4=O)C5=O)CC3)cc2)CC1` (configuration not stated), for which, in [28], the bioavailability turned out to be 23.2%. The Cmax in [29] is 135 ng/mL.
